For one series, the system named is ICR-strain mice. As to the kind of experiment: acute toxicity, intraperitoneal, ICR-strain mice. It is filed as in vivo, mouse. The note with it: dosage of 100 mg/kg. The text has this:
In order to estimate the acute toxicity of the compound of the formula (VIII) or (IIId), some of the test compound was intraperitoneally given to ICR-strain mice (in groups each consisting of 6 mice, male, 5 weeks-aged, average body weight 20 g.), when all the tested mice tolerated intraperitoneal administration of (2S,3R)-APHA; (2S)-2-N-[(2'S,3'R)-3'-amino-2'-hydroxy-4'-phenyl-butanoyl]amino-4-methyl- pentanol; (2S)-2-N-[(2'S,3'R)-3'-amino-2'-hydroxy-4'-phenylbutanoyl-(S)-leucyl]amino-4-methyl-pentanol; (2S,3R)-3-amino-2-hydroxy-4-phenylbutanoyl-(S)-leucyl-(S)-leucine; (2S,3R)-3-amino-2-hydroxy-4-phenyl-butanoyl-(S)-leucyl-(S)-arginine; (2S,3R)-3-amino-2-hydroxy-4-phenylbutanoyl-(S)-leucyl-(S)-asparagine; (2R,3R)-3-amino-2-hydroxy-4-phenylbutanoyl-(S)-leucyl-(R)-asparagine; and (2S,3R)-3-amino-2-hydroxy-4-phenylbutanoyl-(S)-leucyl-(R)-arginine at a dosage of 100 mg/kg.

The subject of series [1] is D.T.H. response in mice immunized with SRBC as antigen. As to the kind of experiment: D.T.H. footpad test in mice immunized with SRBC, Examples 3-6 (dosages per mouse). It is filed as in vivo. The note with it: for enhancement of D.T.H. response / cell-mediated immunity: oral, 10 mcg/mouse or 1 mcg/mouse. Here is the method:
The effect of (2S,3R)-AHPA on cell-mediated immunity was tested in the same way in Example 2, namely according to the D.T.H. technique using mice immunized with sheep red blood cell as antigen. Thus, a suspension of 10^8 sheep red blood cells in 0.05 ml of physiological saline were subcutaneously injected at the time of immunization into the right hind footpad of each CDF1 -mouse under test (female, 8 weeks-aged, 5 mice in each group) to establish D.T.H. […] The degree of swelling was evaluated. By way of comparison, bestatin was tested in the same way as above. […] The effect of (2S,3R)-AHPA on the D.T.H. response was estimated in the same manner as in the above procedure (A) of Example 3 by orally administering 1 mcg/mouse, 0.1 mcg/mouse or 0.01 mcg/mouse of (2S,3R)-AHPA to each mouse under test. […] The effect of the mode of administering (2S,3R)-AHPA on the D.T.H. response was estimated in the same manner as in the procedure (A) of Example 3, except that the test compound (as aqueous solution) was injected intraperitoneally in stead of being given orally.

For another series, the target named is T1, aminopeptidase B (Rattus norvegicus, UniProt O09175).
T1 sequence (O09175 1-650): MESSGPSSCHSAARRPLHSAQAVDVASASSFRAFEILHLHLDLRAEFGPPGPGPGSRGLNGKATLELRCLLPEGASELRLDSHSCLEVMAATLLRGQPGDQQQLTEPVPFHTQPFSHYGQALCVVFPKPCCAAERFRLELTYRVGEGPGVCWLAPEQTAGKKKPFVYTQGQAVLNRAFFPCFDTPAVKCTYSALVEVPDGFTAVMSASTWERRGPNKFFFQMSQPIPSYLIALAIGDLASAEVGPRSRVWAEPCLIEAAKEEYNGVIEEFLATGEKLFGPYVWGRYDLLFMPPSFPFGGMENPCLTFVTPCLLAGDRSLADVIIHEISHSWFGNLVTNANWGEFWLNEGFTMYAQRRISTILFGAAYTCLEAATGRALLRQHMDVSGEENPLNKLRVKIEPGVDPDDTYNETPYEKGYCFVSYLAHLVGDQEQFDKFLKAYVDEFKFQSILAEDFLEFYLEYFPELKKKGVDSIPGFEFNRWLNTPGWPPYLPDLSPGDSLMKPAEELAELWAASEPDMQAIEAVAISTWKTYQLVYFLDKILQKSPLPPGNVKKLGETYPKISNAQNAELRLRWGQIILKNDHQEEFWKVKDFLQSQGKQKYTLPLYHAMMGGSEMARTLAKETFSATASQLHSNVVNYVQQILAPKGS
As to the kind of experiment: aminopeptidase B-inhibiting activity (modified Hopsu method, arginine β-naphthylamide substrate). To be noted: 37° C., pH 7.0, 30 minutes. The series is classed as biochemical. As for the experimental part:
The aminopeptidase B-inhibiting activity was determined according to a modification of the method of V. K. Hopsu et al. described in the "Archives of Biochemistry and Biophysics" Vol. 114, 557 (1966). Thus, a mixture of 0.8 ml of 0.1 mM of (S)-arginine β-naphthylamide and 1.0 ml of 0.1M Tris-hydrochloride buffer (pH 7.0) was admixed with 0.7 ml of 0.1M Tris-hydrochloride buffer (pH 7.0) containing the test compound and then heated at 37° C. for 3 minutes. […] After the reaction at 37° C. for 30 minutes, the reaction solution was admixed with 0.6 ml of 0.1M acetate buffer (pH 4.2) containing 1.0 mg/ml of diazonium salt of o-aminoazotoluene (Garnet GBC) and 1.0% of a surfactant "Tween" 20 (a registered trademark) to stop the enzymatic reaction and then allowed to stand at ambient temperature for 15 minutes. After this, absorbance (a) at 525 nm of the reaction solution was measured by spectrophotometer. For the control, the above procedure was repeated without the test compound and the adsorbence (b) was measured. Percentages for inhibition to aminopeptidase B were calculated according to the equation: [formula] Inhibition percentages at various concentrations of the test compound were measured, and from the values of inhibition percentages measured 50% Inhibition Concentration (IC50) was evaluated.

For series [2], the system named is D.T.H. response in mice immunized with sheep red blood cell (SRBC). As to the kind of experiment: Delayed Type Hypersensitivity (D.T.H.) footpad test in mice immunized with SRBC, Example 2. The series is classed as in vivo, mouse. To be noted: CDF1 mice, control = 100. As for the experimental part: This Example describes the tests for evaluation of the immunopotentiating activity of the new compound of this invention.
A suspension of 10^8 sheep red blood cells in 0.05 ml of physiological saline was subcutaneously injected at the time of immunization into the right hind footpad of each CDF1 -mouse under test (female, 8 weeks-aged, 5 mice in each group) to establish D.T.H. Simultaneously to the immunization, […] prepared by dissolving the test compound in physiological saline and then filtering the solution by a micropore filter (pore diameter: 0.22 micrometers). Four days later, 10^8 SRBC were subcutaneously injected into the left […] footpad of each test mouse for elicitation of the D.T.H. response. 24 Hours after the elicitating injection, the increased thickness of the left hind footpad was measured with calipers to estimate the degree of swelling in the footpad. The swelling degree is expressed in term of the values calculated by the equation: [formula] The degree of swelling serves to evaluate the degree of cell-mediated immunity involved. For comparison, a suspension of bestatin dispersed in water was tested in the same way as above.

Setting [3] is: Table 7, oral 1 mcg/mouse, control = 100.
[4] abbreviates: Table 7, oral 10 mcg/mouse, control = 100.
Where [5] appears, read: oral 0.05 mg/kg at immunization.

Read-outs that look alike come from different tables or passages of the source.

For `CC(C)C[C@H](NC(=O)[C@H](CC(C)C)NC(=O)[C@@H](O)[C@H](N)Cc1ccccc1)C(=O)O`, the “acute toxicity: tolerance of intraperitoneal administration” value (from here on “acute toxicity: tolerance”) in the series on ICR-strain mice is given as “tolerated”.
In the case of `COC(=O)[C@@H](O)[C@H](N)Cc1ccccc1.Cl` [(2S,3R)-AHPA methylester hydrochloride], the “Increase in thickness of footpad (± S.D.)” value in series [1] (Table 7, oral 1 mcg/mouse) came to 11.7 ± 1.29 × 0.1 mm; in series [1] (Table 7, oral 10 mcg/mouse), 11.5 ± 1.12 × 0.1 mm. The Degree of swelling in series [1] (setting [3]) is on record as 134%; in series [1] (setting [4]), 132%. For the same molecule, the “enhancement of D.T.H. response / cell-mediated immunity” value in series [1] is recorded as “active substantially as much as the free acid form of (2S,3R)-AHPA”.
In the case of `CC(C)C[C@@H](CO)NC(=O)[C@H](CC(C)C)NC(=O)[C@@H](O)[C@H](N)Cc1ccccc1`, the “acute toxicity: tolerance” value in the series with ICR-strain mice is listed as “tolerated”.
As to `CC(=O)N[C@H](Cc1ccccc1)[C@H](O)C(=O)N[C@H](CO)CC(C)C` [Compound No. 3, (2S)-2-N-[(2'S,3'R)-3'-N-acetylamino-2'-hydroxy-4'-phenylbutanoyl]amino-4-methyl-pentanol], the half-inhibitory concentration (IC50) (commonly the concentration that gives 50% inhibition) against aminopeptidase B came out at 48.9 µg/mL. The solubility in water entry in “solubility in water” is “soluble in water”. Further, the Degree of swelling was determined as 124% in series [2] (setting [5]) and 131% in series [2] (oral 0.5 mg/kg at immunization).
In the case of `CC(C)C[C@@H](CO)NC(=O)[C@@H](O)[C@H](N)Cc1ccccc1` [Compound No. 2, (2S)-2-N-[(2'S,3'R)-3'-amino-2'-hydroxy-4'-phenylbutanoyl]amino-4-methyl-pentanol], in the series with ICR-strain mice, the “acute toxicity: tolerance” value is listed as “tolerated”. The molecule further gave an IC50 against aminopeptidase B of 0.65 µg/mL. Moreover, the Degree of swelling was 106% in series [2] (setting [5]) and 126% in series [2] (oral 0.5 mg/kg at immunization).
Turning to `NC(=O)[C@@H](O)[C@H](N)Cc1ccccc1` [(2S,3R)-AHPA amide], the “Increase in thickness of footpad (± S.D.)” value in series [1] (Table 7, oral 1 mcg/mouse) is given as 9.8 ± 0.82 × 0.1 mm; in series [1] (Table 7, oral 10 mcg/mouse) it was 11.5 ± 1.20 × 0.1 mm. Further, the values for the Degree of swelling in series [1] (setting [3]) and in series [1] (setting [4]) were 111% and 131%, respectively.
Take `CC(C)C[C@H](NC(=O)[C@@H](O)[C@H](N)Cc1ccccc1)C(=O)N[C@@H](CC(N)=O)C(=O)O`: in the series on ICR-strain mice, the “acute toxicity: tolerance” value is reported as “tolerated”.
`CC(C)C[C@@H](CO)NC(=O)[C@H](CC(C)C)NC(=O)C(O)[C@H](N)Cc1ccccc1` (stereo partly drawn) [Compound No. 4, (2S)-2-N-[(2'S,3'R)-3'-amino-2'-hydroxy-4'-phenylbutanoyl-(S)-leucyl]amino-4-methyl-pentanol]: the IC50 on aminopeptidase B was 5.4 µg/mL. Also, in series [2] (oral 0.5 mg/kg at immunization), the Degree of swelling was determined as 103%.
On aminopeptidase B, `CC(C)C[C@H](NC(=O)C(O)[C@H](N)Cc1ccccc1)C(=O)N[C@H](Cc1ccccc1)[C@H](O)C(=O)O` (stereo partly drawn) [Compound No. 8, (3R)-N-[(2'S,3'R)-3'-amino-2'-hydroxy-4'-phenylbutanoyl-(S)-leucyl]amino-(2S)-2-hydroxy-4-phenylbutanoic acid] registered a 50% inhibitory concentration (IC50) of 53 µg/mL.
As for `CC(C)C[C@H](NC(=O)[C@@H](O)[C@H](N)Cc1ccccc1)C(=O)N[C@@H](CCCNC(=N)N)C(=O)O`, the “acute toxicity: tolerance” value in the series on ICR-strain mice is “tolerated”.
Turning to `Cl.N[C@H](Cc1ccccc1)[C@H](O)CO` [Compound No. 1, (2S,3R)-3-amino-2-hydroxy-4-phenyl-1-butanol-hydrochloride], the IC50 at aminopeptidase B (read-out: IC50) is above 230 µM. Moreover, the solubility in water result in the series “solubility in water” is “soluble in water”. Further, the Degree of swelling in series [2] (setting [5]) is recorded as 123%; in series [2] (oral 0.5 mg/kg at immunization) it was 129%.
Turning to `NC(=O)[C@H](O)[C@H](N)Cc1ccccc1` [(2R,3R)-AHPA amide], the solubility in water result in the series “solubility in water” is “soluble in water”.
Consider `N[C@@H](Cc1ccccc1)[C@@H](O)C(=O)O` [(2R,3S)-AHPA], for which the Degree of swelling is 133% in series [1] (Table 6, oral 1 mcg/mouse) and 120% in series [1] (Table 6, oral 10 mcg/mouse). The “Increased in thickness of footpad (± S.D.)” value (“Increased in thickness” below) in series [1] (Table 6, oral 1 mcg/mouse) is 11.7 ± 1.15 × 0.1 mm; in series [1] (Table 6, oral 10 mcg/mouse), 10.6 ± 0.97 × 0.1 mm.
In the case of `N[C@H](Cc1ccc(O)cc1)[C@H](O)C(=O)O` [(2S,3R)-p-OH-AHPA, (2S,3R)-3-amino-2-hydroxy-4-p-hydroxyphenylbutanoic acid], the solubility in water result in the series “solubility in water” is recorded as “soluble in water”. For the same molecule, the “Increase in thickness of footpad (+ S.D.)” value in series [1] (Table 8, oral 1 mcg/mouse) stood at 9.7 ± 0.54 × 0.1 mm; in series [1] (Table 8, oral 10 mcg/mouse) it was 11.0 ± 1.75 × 0.1 mm. Also, the Degree of swelling in series [1] (Table 8, oral 1 mcg/mouse, control = 100) came out at 114%; in series [1] (Table 8, oral 10 mcg/mouse, control = 100), 129%. Also, the “enhancement of D.T.H. response / cell-mediated immunity” value in series [1] is reported as “enhances likewise the cell-mediatedimmunity”.
The molecule `N[C@@H](Cc1ccccc1)[C@H](O)C(=O)O` [(2S,3S)-AHPA] registered a Degree of swelling in series [1] (Table 6, oral 1 mcg/mouse) of 111%. Also, in series [1] (Table 6, oral 10 mcg/mouse), the Degree of swelling turned out to be 135% and the “Increased in thickness” value was determined as 11.9 ± 1.36 × 0.1 mm.
Take `N[C@H](Cc1ccccc1)[C@@H](O)C(=O)O` [(2R,3R)-AHPA]: the solubility in water result in the series “solubility in water” is recorded as “soluble in water”. Besides, the Degree of swelling in series [1] (Table 6, oral 1 mcg/mouse) is on record as 135%. Moreover, the “Increased in thickness” value in series [1] (Table 6, oral 1 mcg/mouse) is reported as 11.9 ± 0.74 × 0.1 mm; in series [1] (Table 6, oral 10 mcg/mouse), 9.6 ± 0.65 × 0.1 mm.
Regarding `CC(C)C[C@H](NC(=O)[C@@H](O)[C@H](N)Cc1ccccc1)C(=O)N[C@H](CC(C)C)C(=O)O` [Compound No. 7, (2S,3R)-3-amino-2-hydroxy-4-phenylbutanoyl-(S)-leucyl-(R)-leucine], the 50% inhibitory concentration (IC50) at aminopeptidase B was 15 µg/mL. In series [2] (oral 0.5 mg/kg at immunization), the Degree of swelling came out at 120%.
